Measurements as given in US5990083A, “Multicatalytic protease inhibitors” (Cephalon, Inc., priority 1997, dated 1999).

Tests used:
[1] = system: wild-type and FALS mutant (Ala4→Val, Ile113→Thr) SOD-1 in 293 cells; assay: Dose response of SOD-1 isoforms in stably transformed 293 cell lines; type: cell-based, human
Description: Cells were maintained in G418 selection for three weeks at which time drug selection was removed and the G418-resistant colonies of each transformed cell type were pooled for further growth. Compound 14 was utilized in these studies.
Cell lines expressing the indicated SOD-1 isoforms were incubated with various concentrations of compound 14 for 24 hours at which time the SOD-1 levels were measured by densitometric scanning of immunoblots.

[2] = system: Ile113→Thr mutant SOD-1 in human 293 cells; assay: SOD-1 levels in transiently transfected 293 cells (immunoblot); conditions: 5 μM, 24 hours, FIG. 5
Description: The human kidney cell line designated 293 (human 293 cells or 293 cells)was obtained from the American Type Culture Collection (ATCC), 12301 Parklawn Drive, Rockville, Md., 20852 (ATCC #CRL 1573) and grown in Dulbecco's modified Eagle's medium with 4.6 g/L glucose, 10% heat-inactivated horse serum (Gibco/Life Technologies Inc. Gaithersburg, Md.). The human 293 cells were maintained at 37° C. in an atmosphere of 5% CO2. The 293 cells were transiently transfected using the calcium phosphate method (Chen, C. et al., Biotechniques 6: 632 (1988). The pCMV-113 SOD-1 expression vector was introduced into 293 cells and 24 hours later, the cells were incubated with either compound 34, compound 14, or compound 24, all at a concentration of 5 μM, for a duration of 24 hours. The known MCP and other protease inhibitory compounds were solubilized in dimethyl sulfoxide (DMSO). Other 293 cell cultures were incubated with an equal volume of DMSO or left in medium only as negative controls.
Approximately 48 hours prior to receiving test compounds, 5×10^5 293 cells were seeded in 36 mm dishes and maintained at 37° C. in an atmosphere of 5% CO2. Cells were incubated with MCP inhibitors (compound 34, 14 or 24) or with DMSO as a negative control for a duration of 24 hours. Cell lysates were prepared by lysing the cells in approximately 75 μl of phosphate-buffered saline (PBS) by freeze/thaw cycling. Protein concentrations of the cell lysates were determined using the BCA method (Pierce, Rockford, Ill.) and 2 to 2.5 μg of each sample was electrophoresed on a 4-20% polyacrylamide geol (Novex, San Diego, Calif.) using a Tris/glycine/SDS (25 mM Tris/192 mM glycine/0.1% SDS) buffer system. […] Stained bands corresponding to SOD-1 protein were quantitated using a DocuGel V image analysis system and RFLPscan software (Scanalytics, Billerica, Mass.). Levels of SOD-1 are expressed as units of induction relative to the negative control (i.e., units of experimental divided by units of control).

[3] = system: Ala4→Val mutant SOD-1 in transformed 293 cells; assay: Specificity of MCP activity in SOD-1 turnover, Ala4→Val cell line; type: cell-based, human; conditions: 20 μM, 24 hours; FIG. 7; relative to untreated samples
Description: (§1) Res. Comm. (1988) 153: 1201.), a cell penetrating "calpain" inhibitor (calpain is a cysteine protease); and DK-3 (Enzyme Systems Products, Dublin, Calif. CBZ-Phe-Ala-CHN2) inhibits lysosomal protease activity. […] Cell lines expressing the indicated SOD-1 isoforms were incubated for 24 hours with the following protease inhibitors: Compound 14, 20 μM; Calpeptin, 10 μM; DK-3, 5 μM; Compound 16, 20 μM; or with DMSO as a negative control. After the 24 hours of incubation with the inhibitors, SOD-1 levels were measured by densitometric scanning of immunoblots. […] Each data point is the average of results from three experiments.

[4] = system: wild-type SOD-1 in transformed 293 cells; assay: Specificity of MCP activity in SOD-1 turnover, wild-type cell line; type: cell-based, human; conditions: 20 μM, 24 hours; FIG. 7
Description: as §1

## CC(C)C[C@@H](C=O)NC(=O)[C@H](CCCNC(=N)N[N+](=O)[O-])NC(=O)C(CCCCCCCCC#N)C1CCCC1 (stereo partly drawn) [Compound 14, 10-cyano-2-cyclopentyldecanoyl-N^g-nitro-L-arginyl-L-leucinal]
[1]; 24 hours, FIG. 6
  Concentration giving maximal SOD-1 accumulation: approximately 20 μM
[1]; summary statement
  Reduction of wild-type and mutant SOD-1 degradation: reduces wild-type and mutant SOD-1 degradation in a dose-dependent manner
[1]; various concentrations, 24 hours, FIG. 6
  Accumulation of SOD-1 protein levels: significant accumulations of SOD-1 protein levels
[1]; wild-type SOD-1 cell line, dose response
  Effect on turnover of the wild-type SOD-1 protein: statistically significant effect
[2]
  SOD-1 levels compared to controls: modestly elevated
[3]
  Increase in the accumulation of SOD-1 protein (Ala4→Val mutant): three-fold
[4]
  Wild-type SOD-1 accumulation: slight increase
